According to ChEMBL document CHEMBL1201862, “PubChem BioAssay data set” (2004):
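Five compound concentrations were applied to cells in 96-well plates for 48 hours; endpoints were derived by simple linear interpolation of the resulting dose-response curve. GI50 marks 50% less growth.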 The source made the active and inactive calls. Cut-off read from the data, not from the text of the source: active = GI50 up to about 1.1 µM and inactive = higher.

Legend:
Assay in all cases: NCI anticancer screen, dose series, 48 h
A549 = tested on: A549
SR = tested on: SR
OVCAR-8 = tested on: OVCAR-8
SF-268 = tested on: SF-268
KM12 = tested on: KM12
SNB-75 = tested on: SNB-75
SNB-19 = tested on: SNB-19
HCC 2998 = tested on: HCC 2998
SW-620 = tested on: SW-620
NCI-H460 = tested on: NCI-H460
NCI/ADR-RES = tested on: NCI/ADR-RES
SK-OV-3 = tested on: SK-OV-3
NCI-H522 = tested on: NCI-H522
OVCAR-3 = tested on: OVCAR-3
K562 = tested on: K562
SF-295 = tested on: SF-295
UO-31 = tested on: UO-31
ACHN = tested on: ACHN
LOX IMVI = tested on: LOX IMVI
RXF 393 = tested on: RXF 393

SMILES	GI50 (A549)	GI50 (SR)	GI50 (OVCAR-8)	GI50 (SF-268)	GI50 (KM12)	GI50 (SNB-75)	GI50 (SNB-19)	GI50 (HCC 2998)	GI50 (SW-620)	GI50 (NCI-H460)	GI50 (NCI/ADR-RES)	GI50 (SK-OV-3)	GI50 (NCI-H522)	GI50 (OVCAR-3)	GI50 (K562)	GI50 (SF-295)	GI50 (UO-31)	GI50 (ACHN)	GI50 (LOX IMVI)	GI50 (RXF 393)
C=C1C(=O)O[C@H]2[C@H]([C@H](C)CCCC(C)=O)O[C@H]([C@@]3(C)CCC(=O)O3)C[C@@H]12	> 100 µM (inactive)	55.6 µM (inactive)	63.4 µM (inactive)	0.0316 µM (active)	98.9 µM (inactive)	> 100 µM (inactive)	> 100 µM (inactive)	68.1 µM (inactive)	46.3 µM (inactive)	> 100 µM (inactive)	> 100 µM (inactive)	> 100 µM (inactive)	26.4 µM (inactive)	56.1 µM (inactive)	61.4 µM (inactive)	> 100 µM (inactive)	> 100 µM (inactive)	46.9 µM (inactive)	24.4 µM (inactive)	
CCCCOc1c(C(=O)O)cc(Br)cc1C(=O)O	> 100 µM (inactive)		> 100 µM (inactive)	> 100 µM (inactive)	> 100 µM (inactive)	> 100 µM (inactive)	> 100 µM (inactive)	> 100 µM (inactive)	> 100 µM (inactive)	> 100 µM (inactive)	> 100 µM (inactive)	> 100 µM (inactive)	> 100 µM (inactive)	> 100 µM (inactive)	> 100 µM (inactive)	> 100 µM (inactive)	> 100 µM (inactive)	> 100 µM (inactive)	> 100 µM (inactive)	> 100 µM (inactive)
CCOC(=O)N1C(=S)C(C(=O)OC)(C(=O)OC)N=C1C	> 100 µM (inactive)	> 100 µM (inactive)	> 100 µM (inactive)		> 100 µM (inactive)	> 100 µM (inactive)	> 100 µM (inactive)	> 100 µM (inactive)	> 100 µM (inactive)	> 100 µM (inactive)	> 100 µM (inactive)	> 100 µM (inactive)		> 100 µM (inactive)	> 100 µM (inactive)	> 100 µM (inactive)	> 100 µM (inactive)	> 100 µM (inactive)	> 100 µM (inactive)	> 100 µM (inactive)
COc1cccc(/C=C2\S/C(=N/Nc3nc(-c4ccc([N+](=O)[O-])cc4)cs3)NC2=O)c1O	15.9 µM (inactive)	12 µM (inactive)	13.6 µM (inactive)	5 µM (inactive)	13.2 µM (inactive)		5.19 µM (inactive)	17.5 µM (inactive)	19.3 µM (inactive)	12.6 µM (inactive)	17.9 µM (inactive)	26.9 µM (inactive)		15 µM (inactive)		16.9 µM (inactive)	12.5 µM (inactive)	17.3 µM (inactive)	3.25 µM (inactive)	
O=C1C2C(C(=O)N1c1ccccc1)C1(c3ccccc3)CCC2(C(=O)c2ccccc2)O1 (stereo unspecified)	> 10 µM (inactive)		> 10 µM (inactive)	> 10 µM (inactive)	> 10 µM (inactive)		> 10 µM (inactive)	> 10 µM (inactive)	> 10 µM (inactive)	> 10 µM (inactive)	> 10 µM (inactive)	> 10 µM (inactive)	> 10 µM (inactive)	> 10 µM (inactive)		> 10 µM (inactive)	> 10 µM (inactive)	> 10 µM (inactive)	> 10 µM (inactive)	> 10 µM (inactive)
N#C/C(N)=C(C#N)/N=C/NCCO	> 100 µM (inactive)	> 100 µM (inactive)	> 100 µM (inactive)	> 100 µM (inactive)	> 100 µM (inactive)	> 100 µM (inactive)	> 100 µM (inactive)	> 100 µM (inactive)	> 100 µM (inactive)	> 100 µM (inactive)	> 100 µM (inactive)	> 100 µM (inactive)	> 100 µM (inactive)	> 100 µM (inactive)	> 100 µM (inactive)	> 100 µM (inactive)	> 100 µM (inactive)	> 100 µM (inactive)	> 100 µM (inactive)	
COC(=O)c1ccc(NC(=O)c2cc3c(cc2Br)OCO3)o1	> 100 µM (inactive)	41.4 µM (inactive)	> 100 µM (inactive)	0.471 µM (active)	> 100 µM (inactive)		> 100 µM (inactive)	> 100 µM (inactive)	> 100 µM (inactive)		59 µM (inactive)	> 100 µM (inactive)	15.7 µM (inactive)	> 100 µM (inactive)	63.2 µM (inactive)	> 100 µM (inactive)	> 100 µM (inactive)	> 100 µM (inactive)	> 100 µM (inactive)	
CC(=O)Oc1ccc2c(c1)Oc1cc(C(C)=O)ccc1C21OC(=O)c2ccccc21 (stereo unspecified)	> 100 µM (inactive)		> 100 µM (inactive)	1.8 µM (inactive)	> 100 µM (inactive)	94.8 µM (inactive)	> 100 µM (inactive)	> 100 µM (inactive)	> 100 µM (inactive)	> 100 µM (inactive)	> 100 µM (inactive)	94.8 µM (inactive)	> 100 µM (inactive)	60.3 µM (inactive)	> 100 µM (inactive)	> 100 µM (inactive)	85.5 µM (inactive)	> 100 µM (inactive)	> 100 µM (inactive)	39.7 µM (inactive)
COc1cc(/C=C/C(=O)Oc2ccccc2)ccc1C(=O)O/C=C/c1ccccc1	> 100 µM (inactive)		> 100 µM (inactive)	> 100 µM (inactive)	> 100 µM (inactive)	> 100 µM (inactive)	> 100 µM (inactive)	> 100 µM (inactive)	> 100 µM (inactive)	> 100 µM (inactive)	> 100 µM (inactive)	> 100 µM (inactive)	> 100 µM (inactive)	> 31.6 µM (inactive)	> 100 µM (inactive)	> 100 µM (inactive)	> 100 µM (inactive)	> 100 µM (inactive)	> 100 µM (inactive)	> 100 µM (inactive)
CN(C)c1ccc(/C=C(\NC(=O)c2ccccc2)c2nn(C)c(=O)o2)cc1	> 100 µM (inactive)		26.7 µM (inactive)	44.1 µM (inactive)	37.6 µM (inactive)	16.9 µM (inactive)	28.1 µM (inactive)	> 100 µM (inactive)	52 µM (inactive)	44.4 µM (inactive)	21.7 µM (inactive)	> 100 µM (inactive)	17.6 µM (inactive)	43.9 µM (inactive)	> 100 µM (inactive)	47.5 µM (inactive)	> 100 µM (inactive)	> 100 µM (inactive)	60.1 µM (inactive)	> 100 µM (inactive)
C/C(=N\NC(=O)Nc1ccccc1Cl)c1ccc(O)cc1	> 100 µM (inactive)	4.34 µM (inactive)	> 100 µM (inactive)	> 100 µM (inactive)	> 100 µM (inactive)	34.1 µM (inactive)	> 100 µM (inactive)	> 100 µM (inactive)	> 100 µM (inactive)	20.9 µM (inactive)	> 100 µM (inactive)	> 100 µM (inactive)	> 100 µM (inactive)	> 100 µM (inactive)	8.02 µM (inactive)	> 100 µM (inactive)	> 100 µM (inactive)	> 100 µM (inactive)	45.6 µM (inactive)	
c1ccc2c(c1)nc1n2CCNC1	> 100 µM (inactive)	> 100 µM (inactive)	> 100 µM (inactive)	> 100 µM (inactive)	> 100 µM (inactive)	> 100 µM (inactive)	> 100 µM (inactive)	> 100 µM (inactive)	> 100 µM (inactive)	> 100 µM (inactive)	> 100 µM (inactive)	> 100 µM (inactive)		63 µM (inactive)	> 100 µM (inactive)	> 100 µM (inactive)	> 100 µM (inactive)	> 100 µM (inactive)	> 100 µM (inactive)	> 100 µM (inactive)
O=c1oc2ccc3ccccc3c2cc1-c1cn2c(n1)sc1ccccc12	> 100 µM (inactive)		> 100 µM (inactive)	> 100 µM (inactive)	> 100 µM (inactive)	> 100 µM (inactive)	> 100 µM (inactive)	> 100 µM (inactive)	> 100 µM (inactive)	> 100 µM (inactive)	> 100 µM (inactive)	> 100 µM (inactive)	> 100 µM (inactive)	> 100 µM (inactive)	2.69 µM (inactive)	> 100 µM (inactive)	> 100 µM (inactive)	> 100 µM (inactive)	> 100 µM (inactive)	> 100 µM (inactive)
O=[N+]([O-])C(=C(Nc1ccccc1)Nc1ccccc1)C(Cl)=C(Cl)Cl	17.7 µM (inactive)		22.9 µM (inactive)	18.7 µM (inactive)	24.9 µM (inactive)	19.1 µM (inactive)	17.9 µM (inactive)	19.5 µM (inactive)	14.5 µM (inactive)	16.1 µM (inactive)	22.6 µM (inactive)	29 µM (inactive)	21.4 µM (inactive)	16.5 µM (inactive)	10.3 µM (inactive)	17.8 µM (inactive)	24.5 µM (inactive)	15.9 µM (inactive)	8.77 µM (inactive)	15.8 µM (inactive)
Nn1c(CCCCCCCCc2nnc(COc3ccccc3)n2N)nnc1COc1ccccc1	> 100 µM (inactive)		> 100 µM (inactive)	> 100 µM (inactive)	> 100 µM (inactive)	88.1 µM (inactive)	> 100 µM (inactive)	> 100 µM (inactive)	> 100 µM (inactive)	> 100 µM (inactive)	> 100 µM (inactive)	> 100 µM (inactive)	> 100 µM (inactive)		> 100 µM (inactive)	> 100 µM (inactive)	> 100 µM (inactive)	> 100 µM (inactive)	> 100 µM (inactive)	> 100 µM (inactive)
